≈ marks a conversion by molar mass, not a printed value. Non-standard residues stand in square brackets, D forms with d. Residues, ends and D or L forms follow the SMILES beside them. Ac6c = NC1(C(=O)O)CCCCC1; Orn = NCCC[C@H](N)C(=O)O
Key:
[1] = tested on: C. neoformans 1841 (serotype D); settings: for MIC (μmol/L) 1841 24 h: 1841 (serotype D, 24 h, pH 7.5); for MIC (μmol/L) 1841 48 h: 1841 (serotype D, 48 h, pH 7.5)
[2] = tested on: C. neoformans KN99α (serotype A, mating type MATα); settings: for MIC (μmol/L) KN99α 48 h: KN99α (serotype A, mating type MATα, 48 h)
[3] = tested on: C. neoformans H99 (serotype A); settings: for MIC (μmol/L) H99 24 h: H99 (serotype A, 24 h)
[4] = KN99α (serotype A, mating type MATα, 24 h)

SMILES: CC[C@H](C)[C@H](NC(=O)[C@H](CCCNC(=N)N)NC(=O)[C@H](CC(C)C)NC(=O)[C@@H]1CCCN1C(=O)CN)C(=O)N[C@@H](Cc1ccc(O)cc1)C(=O)N[C@H](C(=O)N1CCC[C@H]1C(=O)N[C@@H](Cc1c[nH]cn1)C(=O)N1CCC[C@H]1C(=O)N1CCC[C@H]1C(=O)N1CCC[C@H]1C(=O)N[C@@H](CCCNC(=N)N)C(=O)N1CCC[C@H]1C(=O)N[C@@H](CC(N)=O)C(=O)N[C@@H](CCC(N)=O)C(=O)N[C@@H](CC(N)=O)C(=O)N[C@@H](CCCNC(=N)N)C(=O)O)C(C)C [Apidaecin 1b scr] (H-GPLRIYVPHPPPRPNQNR-OH)
- MIC (μmol/L) 1841 24 h [1]: > 61 µmol/L
- MIC (μmol/L) 1841 48 h [1]: > 61 µmol/L
- MIC (μmol/L) KN99α 24 h [2, 4]: > 61 µmol/L
- MIC (μmol/L) KN99α 48 h [2]: > 61 µmol/L
- MIC (μmol/L) H99 24 h [3]: > 61 µmol/L
- MIC (μmol/L) H99 48 h ([3]; H99 (serotype A, 48 h)): > 61 µmol/L

SMILES: CC[C@H](C)[C@H](NC(=O)CNC(=O)[C@H](CCC(=O)O)NC(=O)[C@H](CCCCN)NC(=O)[C@H](CC(C)C)NC(=O)[C@H](CCCCN)NC(=O)[C@H](CCCCN)NC(=O)[C@@H](NC(=O)CNC(=O)[C@H](CCC(N)=O)NC(=O)[C@H](CCCCN)NC(=O)[C@@H](NC(=O)[C@H](CCCCN)NC(=O)[C@H](CC(N)=O)NC(=O)[C@H](Cc1ccccc1)NC(=O)[C@H](Cc1ccccc1)NC(=O)[C@H](CCC(N)=O)NC(=O)[C@H](CCCCN)NC(=O)[C@H](CC(C)C)NC(=O)[C@@H](NC(=O)[C@@H]1CCCN1C(=O)[C@H](CCC(N)=O)NC(=O)[C@@H]1CCCN1C(=O)[C@H](CCC(=O)O)NC(=O)[C@@H](N)CCC(N)=O)C(C)C)[C@@H](C)CC)[C@@H](C)CC)C(=O)N[C@@H](CCCCN)C(=O)N[C@@H](CCC(=O)O)C(=O)NCC(=O)NCC(=O)N[C@@H](CCCCN)C(=O)N[C@@H](CCCNC(=N)N)C(=O)N[C@@H](CC(C)C)C(=O)N[C@@H](CC(C)C)C(=O)NCC(=O)O [CRAMP rev] (H-QEPQPVLKQFFNKIKQGIKKLKEGIKEGGKRLLG-OH)
- MIC (μmol/L) 1841 24 h [1]: 1.0 µmol/L (≈ 3.88 µg/mL)
- MIC (μmol/L) 1841 48 h [1]: 2.1 µmol/L (≈ 8.15 µg/mL)
- MIC (mg/L) KN99α 24 h [2, 4]: 4 to 8 mg/L
- MIC (μmol/L) KN99α 24 h [2, 4]: 1.0 to 2.1 µmol/L
- MIC (μmol/L) KN99α 48 h [2]: 2.1 µmol/L (≈ 8.15 µg/mL)
- MIC (μmol/L) H99 24 h [3]: 1.0 µmol/L (≈ 3.88 µg/mL)
- MIC (μmol/L) H99 48 h ([3]; H99 (serotype A, 48 h)): 2.1 µmol/L (≈ 8.15 µg/mL)

SMILES: CC(C)C[C@H](NC(=O)[C@@H]1CCCN1C(=O)[C@H](CCCNC(=N)N)NC(=O)[C@@H]1CCCN1C(=O)[C@H](CCCNC(=N)N)NC(=O)[C@@H]1CCCN1C(=O)[C@@H]1CCCN1C(=O)[C@H](CCCNC(=N)N)NC(=O)[C@@H]1CCCN1C(=O)[C@@H](NC(=O)[C@@H](N)CCCNC(=N)N)C(C)C)C(=O)N[C@@H](Cc1ccc(O)cc1)C(=O)N1CCC[C@H]1C(=O)N[C@@H](CCCNC(=N)N)C(=O)N1CCC[C@H]1C(=O)N[C@@H](CCCCN)C(=O)N[C@@H](CC(=O)O)C(=O)N1CCC[C@H]1C(=O)N[C@@H](CCCNC(=N)N)C(=O)NC1(C(N)=O)CCCCC1 [Chex1Arg20 rev] (H-RVPRPPRPRPLYPRPKDPR[Ac6c]-NH2; N-terminus assumed)
- MIC (μmol/L) 1841 24 h [1]: 3.2 µmol/L (≈ 7.92 µg/mL)
- MIC (μmol/L) 1841 48 h [1]: 3.2 µmol/L (≈ 7.92 µg/mL)
- MIC (μmol/L) KN99α 24 h [2, 4]: 3.2 µmol/L (≈ 7.92 µg/mL)
- MIC (μmol/L) KN99α 48 h [2]: 6.5 µmol/L (≈ 16.1 µg/mL)
- MIC (μmol/L) H99 24 h [3]: 3.2 µmol/L (≈ 7.92 µg/mL)
- MIC (mg/L) H99 48 h ([3]; H99 (serotype A, 48 h)): 8 to 16 mg/L
- MIC (μmol/L) H99 48 h ([3]; H99 (serotype A, 48 h)): 3.2 to 6.5 µmol/L

SMILES: CC[C@H](C)[C@H](NC(=O)[C@H](Cc1ccc(O)cc1)NC(=O)[C@H](CC(N)=O)NC(=O)[C@@H](N)CCCN)C(=O)N[C@@H](CCCN)C(=O)N[C@@H](CCCNC(=N)N)C(=O)N1CCC[C@H]1C(=O)N1CCC[C@H]1C(=O)N[C@@H](CCCNC(=N)N)C(=O)N1CCC[C@H]1C(=O)N[C@@H](CCCNC(=N)N)C(=O)N1CCC[C@H]1C(=O)N[C@@H](CC(C)C)C(=O)N[C@@H](Cc1ccc(O)cc1)C(=O)N1CCC[C@H]1C(=O)N1CCC[C@H]1C(=O)N[C@@H](CCCCN)C(=O)N[C@@H](CC(=O)O)C(=O)N[C@H](C(N)=O)C(C)C [Onc72 rev] (H-[Orn]NYI[Orn]RPPRPRPLYPPKDV-NH2)
- MIC (μmol/L) 1841 24 h [1]: 28 µmol/L (≈ 64.6 µg/mL)
- MIC (μmol/L) 1841 48 h [1]: 56 µmol/L (≈ 129 µg/mL)
- MIC (μmol/L) KN99α 24 h [2, 4]: 28 µmol/L (≈ 64.6 µg/mL)
- MIC (μmol/L) KN99α 48 h [2]: 56 µmol/L (≈ 129 µg/mL)
- MIC (μmol/L) H99 24 h [3]: 28 µmol/L (≈ 64.6 µg/mL)
- MIC (μmol/L) H99 48 h ([3]; H99 (serotype A, 48 h)): 56 µmol/L (≈ 129 µg/mL)

Source: publication PMC10800876, “Evaluation of proline-rich antimicrobial peptides as potential lead structures for novel antimycotics against Cryptococcus neoformans” (Frontiers in Microbiology, 2024)
